According to US11969428B2, “Methods and pharmaceutical compositions for treating lymphoid malignancy” (priority 2011, dated 2024):

Legend:
Experiment in all cases: Ambit KinomeScan screening
Type in all cases: binding
Conditions in all cases: CAL-130 10 μM
ABL1 = molecular target: T1, ABL1 (Homo sapiens, UniProt P00519)
T1 construct: unspecified tag ("tagged kinases"); purchased Ambit (KinomeScan screening)
Experimental: (§1) CAL-130 (10 μM) was evaluated for its ability to prevent tagged kinases from interacting with immobilized “bait” ligand (Karaman et al., 2008). Results are reported as “% of control binding”, where lower numbers indicate stronger interactions with the tagged kinase. Values of >35% are considered “no hits”. PI3Kδ had the lowest percentage of control binding at 0.2% followed by PI3Kγ at 3.2% (See Table 1 below). These values indicate a high probability of a potent interaction. 353 kinases were assessed in the screen (Table 2).

AURKC = molecular target: T2, AURKC (Homo sapiens, UniProt Q9UQB9)
T2 construct: purchased Ambit (KinomeScan screening service)
Experimental: as §1

BMPR1B = molecular target: T3, BMPR1B (Homo sapiens, UniProt O00238)
T3 construct: purchased Ambit (KinomeScan screening service)
Experimental: as §1

BRSK1 = molecular target: T4, BRSK1 (Homo sapiens, UniProt Q8TDC3)
T4 construct: unspecified tag ("tagged kinases"); purchased Ambit (KinomeScan screening)
T4 sequence (Q8TDC3 whole entry): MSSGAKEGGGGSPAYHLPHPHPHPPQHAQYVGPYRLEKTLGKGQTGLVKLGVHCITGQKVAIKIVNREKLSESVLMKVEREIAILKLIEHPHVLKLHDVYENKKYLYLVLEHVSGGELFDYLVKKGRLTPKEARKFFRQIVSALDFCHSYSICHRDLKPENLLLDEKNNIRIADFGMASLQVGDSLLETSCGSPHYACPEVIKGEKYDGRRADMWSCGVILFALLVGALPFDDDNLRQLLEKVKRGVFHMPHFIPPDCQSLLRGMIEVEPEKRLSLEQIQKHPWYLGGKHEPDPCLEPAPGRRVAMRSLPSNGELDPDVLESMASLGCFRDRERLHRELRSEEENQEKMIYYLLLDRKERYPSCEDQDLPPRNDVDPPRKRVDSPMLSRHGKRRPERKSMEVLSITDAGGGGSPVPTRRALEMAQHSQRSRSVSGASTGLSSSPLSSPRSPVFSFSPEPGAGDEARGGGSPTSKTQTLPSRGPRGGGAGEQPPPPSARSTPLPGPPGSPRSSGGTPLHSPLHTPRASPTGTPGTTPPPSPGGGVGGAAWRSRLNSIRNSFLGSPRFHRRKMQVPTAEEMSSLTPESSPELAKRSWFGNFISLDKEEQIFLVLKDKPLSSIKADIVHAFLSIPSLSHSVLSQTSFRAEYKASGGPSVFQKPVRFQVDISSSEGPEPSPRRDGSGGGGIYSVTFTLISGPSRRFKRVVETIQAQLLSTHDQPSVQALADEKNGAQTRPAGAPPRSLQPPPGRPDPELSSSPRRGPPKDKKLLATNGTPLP
Experimental: as §1

CAMKK2 = molecular target: T5, CAMKK2 (Homo sapiens, UniProt Q96RR4)
T5 construct: purchased Ambit (KinomeScan screening)
Experimental: as §1

CDK3 = molecular target: T6, CDK3 (Homo sapiens, UniProt Q00526)
T6 construct: purchased Ambit (KinomeScan screening)
Experimental: as §1

CDKL5 = molecular target: T7, CDKL5 (Homo sapiens, UniProt O76039)
T7 construct: purchased Ambit (KinomeScan screening service)
Experimental: as §1

DRAK1 = molecular target: T8, DRAK1 (Homo sapiens, UniProt Q9UEE5)
T8 construct: unspecified tag ("tagged kinases"); purchased Ambit (KinomeScan screening service)
Experimental: as §1

FGFR1 = molecular target: T9, FGFR1 (Homo sapiens, UniProt P11362)
T9 construct: unspecified tag; purchased Ambit (KinomeScan screening service)
T9 sequence (P11362 22-822): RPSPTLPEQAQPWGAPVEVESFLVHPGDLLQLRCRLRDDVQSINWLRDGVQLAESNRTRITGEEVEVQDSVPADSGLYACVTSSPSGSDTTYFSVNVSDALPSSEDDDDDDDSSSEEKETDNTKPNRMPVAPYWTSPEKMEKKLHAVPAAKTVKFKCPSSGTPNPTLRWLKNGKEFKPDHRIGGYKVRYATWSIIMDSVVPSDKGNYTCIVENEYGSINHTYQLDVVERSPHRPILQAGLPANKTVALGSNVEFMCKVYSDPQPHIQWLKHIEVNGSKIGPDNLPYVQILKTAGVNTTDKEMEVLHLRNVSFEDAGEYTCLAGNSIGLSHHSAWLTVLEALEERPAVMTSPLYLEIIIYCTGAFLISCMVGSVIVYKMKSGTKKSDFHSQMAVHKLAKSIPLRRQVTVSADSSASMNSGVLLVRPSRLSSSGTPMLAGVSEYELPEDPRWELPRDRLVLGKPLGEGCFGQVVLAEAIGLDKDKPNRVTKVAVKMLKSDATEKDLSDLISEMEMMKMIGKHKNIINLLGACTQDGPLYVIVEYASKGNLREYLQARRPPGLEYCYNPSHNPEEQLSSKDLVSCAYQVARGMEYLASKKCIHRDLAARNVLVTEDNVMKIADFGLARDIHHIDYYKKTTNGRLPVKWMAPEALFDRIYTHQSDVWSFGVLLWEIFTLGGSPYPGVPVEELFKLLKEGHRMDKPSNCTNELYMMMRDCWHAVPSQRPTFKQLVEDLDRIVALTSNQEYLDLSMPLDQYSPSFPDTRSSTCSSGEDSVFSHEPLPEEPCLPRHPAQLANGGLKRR
Experimental: as §1

FLT1 = molecular target: T10, FLT1 (Homo sapiens, UniProt P17948)
T10 construct: unspecified tag; purchased Ambit (KinomeScan screening service)
Experimental: as §1

FLT3 = molecular target: T11, FLT3 (Homo sapiens, UniProt P36888)
T11 construct: unspecified tag; purchased Ambit (KinomeScan screening service)
Experimental: as §1

FLT3(D835H) = molecular target: T12, FLT3(D835H) (Homo sapiens, UniProt P36888, D835H)
T12 construct: unspecified tag; purchased Ambit (KinomeScan screening service)
Experimental: as §1

FLT3(D835Y) = molecular target: T13, FLT3(D835Y) (Homo sapiens, UniProt P36888, D835Y)
T13 construct: unspecified tag; purchased Ambit (KinomeScan screening service)
Experimental: as §1

HPK1 = molecular target: T14, HPK1 (Homo sapiens, UniProt Q92918)
T14 construct: Ambit (KinomeScan screening)
Experimental: as §1

IKK-α = molecular target: T15, IKK-α (Homo sapiens, UniProt O15111)
T15 construct: Ambit (KinomeScan screening)
Experimental: as §1

IKK-[…] = molecular target: T16, IKK-[…] (Homo sapiens, UniProt Q14164)
T16 construct: Ambit (KinomeScan screening)
Experimental: as §1

INSRR = molecular target: T17, INSRR (Homo sapiens, UniProt P14616)
T17 construct: Ambit (KinomeScan screening)
Experimental: as §1

IRAK3 = molecular target: T18, IRAK3 (Homo sapiens, UniProt Q9Y616)
T18 construct: purchased Ambit (KinomeScan screening)
T18 sequence (Q9Y616 whole entry): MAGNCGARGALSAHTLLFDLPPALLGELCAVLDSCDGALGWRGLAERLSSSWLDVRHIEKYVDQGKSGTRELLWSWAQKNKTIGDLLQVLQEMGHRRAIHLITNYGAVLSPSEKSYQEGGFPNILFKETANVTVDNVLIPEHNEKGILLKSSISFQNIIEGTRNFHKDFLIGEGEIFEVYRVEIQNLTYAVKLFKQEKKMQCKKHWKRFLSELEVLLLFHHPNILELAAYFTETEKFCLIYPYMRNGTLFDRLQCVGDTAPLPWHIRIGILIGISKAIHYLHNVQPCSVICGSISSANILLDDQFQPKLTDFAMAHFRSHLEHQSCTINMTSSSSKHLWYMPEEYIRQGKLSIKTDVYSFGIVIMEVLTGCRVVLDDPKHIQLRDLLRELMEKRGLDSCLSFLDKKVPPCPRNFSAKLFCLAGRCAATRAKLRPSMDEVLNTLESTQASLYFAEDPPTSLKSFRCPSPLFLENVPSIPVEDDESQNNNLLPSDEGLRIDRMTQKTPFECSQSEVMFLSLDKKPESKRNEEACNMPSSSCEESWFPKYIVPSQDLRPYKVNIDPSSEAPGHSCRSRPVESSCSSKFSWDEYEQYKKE
Experimental: as §1

JAK2(JH1domain) = molecular target: T19, JAK2(JH1domain) (Homo sapiens, UniProt O60674)
T19 construct: JAK2(JH1domain); purchased Ambit (KinomeScan screening)
T19 sequence (O60674 849-1124 limits assumed): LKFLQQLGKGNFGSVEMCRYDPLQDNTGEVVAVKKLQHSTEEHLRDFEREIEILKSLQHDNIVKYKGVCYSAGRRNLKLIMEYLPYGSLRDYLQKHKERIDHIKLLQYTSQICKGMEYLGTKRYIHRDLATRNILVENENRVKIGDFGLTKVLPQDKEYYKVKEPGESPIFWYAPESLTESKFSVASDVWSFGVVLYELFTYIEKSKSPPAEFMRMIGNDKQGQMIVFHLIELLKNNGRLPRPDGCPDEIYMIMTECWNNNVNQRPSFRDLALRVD
Experimental: as §1

JNK3 = molecular target: T20, JNK3 (Homo sapiens, UniProt P53779)
T20 construct: purchased Ambit (KinomeScan screening)
Experimental: as §1

LATS2 = molecular target: T21, LATS2 (Homo sapiens, UniProt Q9NRM7)
T21 construct: unspecified tag ('tagged kinases'); purchased Ambit (KinomeScan screening service)
Experimental: as §1

MAP4K5 = molecular target: T22, MAP4K5 (Homo sapiens, UniProt Q9Y4K4)
T22 construct: Ambit (KinomeScan screening)
Experimental: as §1

MARK2 = molecular target: T23, MARK2 (Homo sapiens, UniProt Q7KZI7)
T23 construct: Ambit (KinomeScan screening)
Experimental: as §1

MEK4 = molecular target: T24, MEK4 (Homo sapiens, UniProt P45985)
T24 construct: purchased Ambit (KinomeScan screening)
Experimental: as §1

MLCK = molecular target: T25, MLCK (Homo sapiens, UniProt Q32MK0)
T25 construct: unspecified tag ('tagged kinases'); purchased Ambit (KinomeScan screening)
Experimental: as §1

NEK5 = molecular target: T26, NEK5 (Homo sapiens, UniProt Q6P3R8)
T26 construct: unspecified tag; purchased Ambit (KinomeScan screening panel)
Experimental: as §1

PKMYT1 = molecular target: T27, PKMYT1 (Homo sapiens, UniProt Q99640)
T27 construct: purchased Ambit (KinomeScan screening service)
Experimental: as §1

SIK2 = molecular target: T28, SIK2 (Homo sapiens, UniProt Q9H0K1)
T28 construct: tag, kind not specified; purchased Ambit (KinomeScan screening service)
Experimental: as §1

SgK110 = molecular target: T29, SgK110 (Homo sapiens, UniProt P0C264)
T29 construct: tag, kind not specified; purchased Ambit (KinomeScan screening service)
Experimental: as §1

TNIK = molecular target: T30, TNIK (Homo sapiens, UniProt Q9UKE5)
T30 construct: unspecified tag (tagged kinase); purchased Ambit (KinomeScan screening)
T30 sequence (Q9UKE5 whole entry): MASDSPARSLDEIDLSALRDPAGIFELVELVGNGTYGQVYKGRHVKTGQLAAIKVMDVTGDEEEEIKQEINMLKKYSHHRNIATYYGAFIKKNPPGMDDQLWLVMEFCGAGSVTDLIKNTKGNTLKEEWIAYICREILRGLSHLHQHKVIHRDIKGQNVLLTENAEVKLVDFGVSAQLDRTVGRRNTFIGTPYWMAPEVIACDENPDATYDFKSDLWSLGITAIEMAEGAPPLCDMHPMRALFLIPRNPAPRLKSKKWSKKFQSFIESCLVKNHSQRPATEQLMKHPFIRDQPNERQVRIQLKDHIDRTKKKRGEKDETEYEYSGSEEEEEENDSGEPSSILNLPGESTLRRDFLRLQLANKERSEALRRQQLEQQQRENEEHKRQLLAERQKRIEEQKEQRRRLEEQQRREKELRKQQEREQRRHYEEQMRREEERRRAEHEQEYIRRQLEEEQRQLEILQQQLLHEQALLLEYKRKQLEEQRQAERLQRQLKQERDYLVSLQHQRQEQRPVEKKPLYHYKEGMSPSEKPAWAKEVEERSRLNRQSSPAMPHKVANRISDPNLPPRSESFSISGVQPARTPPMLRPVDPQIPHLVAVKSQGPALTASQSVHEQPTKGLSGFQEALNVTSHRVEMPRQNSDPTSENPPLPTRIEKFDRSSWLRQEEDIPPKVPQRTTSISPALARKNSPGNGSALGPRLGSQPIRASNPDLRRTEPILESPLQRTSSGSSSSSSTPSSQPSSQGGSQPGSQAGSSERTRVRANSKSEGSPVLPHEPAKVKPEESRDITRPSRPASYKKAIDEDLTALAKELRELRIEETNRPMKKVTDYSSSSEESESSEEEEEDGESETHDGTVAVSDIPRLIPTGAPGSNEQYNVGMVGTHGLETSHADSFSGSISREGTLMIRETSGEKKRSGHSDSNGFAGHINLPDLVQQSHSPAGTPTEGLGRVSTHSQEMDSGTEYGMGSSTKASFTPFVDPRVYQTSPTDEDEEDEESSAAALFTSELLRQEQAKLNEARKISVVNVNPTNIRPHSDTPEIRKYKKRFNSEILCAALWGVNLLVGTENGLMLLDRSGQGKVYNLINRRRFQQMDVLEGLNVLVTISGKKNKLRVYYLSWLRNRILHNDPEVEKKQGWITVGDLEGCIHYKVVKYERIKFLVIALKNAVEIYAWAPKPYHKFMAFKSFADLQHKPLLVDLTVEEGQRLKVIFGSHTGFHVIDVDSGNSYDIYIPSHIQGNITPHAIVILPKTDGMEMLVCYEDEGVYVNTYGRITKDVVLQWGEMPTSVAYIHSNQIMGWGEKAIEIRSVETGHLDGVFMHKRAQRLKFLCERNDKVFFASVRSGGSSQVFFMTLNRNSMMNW
Experimental: as §1

TNK2 = molecular target: T31, TNK2 (Homo sapiens, UniProt Q07912)
T31 construct: unspecified tag (tagged kinase); purchased Ambit (KinomeScan screening)
Experimental: as §1

TSSK1B = molecular target: T32, TSSK1B (Homo sapiens, UniProt Q9BXA7)
T32 construct: tag, kind not specified; purchased Ambit (KinomeScan screening service)
Experimental: as §1

TXK = molecular target: T33, TXK (Homo sapiens, UniProt P42681)
T33 construct: tag, kind not specified; purchased Ambit (KinomeScan screening service)
Experimental: as §1

ULK2 = molecular target: T34, ULK2 (Homo sapiens, UniProt Q8IYT8)
T34 construct: tag, kind not specified; purchased Ambit (KinomeScan screening service)
T34 sequence (Q8IYT8 whole entry): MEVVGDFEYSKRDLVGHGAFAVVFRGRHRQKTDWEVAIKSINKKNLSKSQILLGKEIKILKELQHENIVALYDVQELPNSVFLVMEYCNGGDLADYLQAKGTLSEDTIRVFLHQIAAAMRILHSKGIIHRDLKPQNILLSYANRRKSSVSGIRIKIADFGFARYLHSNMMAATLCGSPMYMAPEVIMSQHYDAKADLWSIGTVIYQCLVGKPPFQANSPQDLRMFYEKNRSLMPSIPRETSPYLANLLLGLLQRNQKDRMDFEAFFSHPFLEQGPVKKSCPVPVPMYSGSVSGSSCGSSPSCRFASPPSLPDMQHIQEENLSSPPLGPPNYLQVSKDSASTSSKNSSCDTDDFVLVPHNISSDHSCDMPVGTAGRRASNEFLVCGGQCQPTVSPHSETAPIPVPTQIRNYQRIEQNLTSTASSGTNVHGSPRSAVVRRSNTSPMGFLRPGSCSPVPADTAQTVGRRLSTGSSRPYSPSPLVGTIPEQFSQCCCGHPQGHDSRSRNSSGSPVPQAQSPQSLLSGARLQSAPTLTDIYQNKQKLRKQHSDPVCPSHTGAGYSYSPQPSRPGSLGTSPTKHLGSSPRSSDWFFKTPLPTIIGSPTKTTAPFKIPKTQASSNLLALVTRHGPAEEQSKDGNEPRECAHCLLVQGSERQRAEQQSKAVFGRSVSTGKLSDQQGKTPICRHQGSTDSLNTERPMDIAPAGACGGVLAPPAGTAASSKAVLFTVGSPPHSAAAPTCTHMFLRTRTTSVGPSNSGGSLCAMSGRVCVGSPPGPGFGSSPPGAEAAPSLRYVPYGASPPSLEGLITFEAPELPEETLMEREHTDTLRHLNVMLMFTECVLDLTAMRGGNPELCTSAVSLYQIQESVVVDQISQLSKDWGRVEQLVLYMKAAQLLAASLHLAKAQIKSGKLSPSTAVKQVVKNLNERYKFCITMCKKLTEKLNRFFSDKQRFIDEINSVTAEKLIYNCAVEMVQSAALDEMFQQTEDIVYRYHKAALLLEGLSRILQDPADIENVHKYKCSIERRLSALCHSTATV
Experimental: as §1

YANK2 = molecular target: T35, YANK2 (Homo sapiens, UniProt Q9NY57)
T35 construct: purchased Ambit (KinomeScan screening service)
Experimental: as §1

ZAK = molecular target: T36, ZAK (Homo sapiens, UniProt Q9NYL2)
T36 construct: purchased Ambit (KinomeScan screening service)
Experimental: as §1

Cc1ccccc1-n1c(C(C)Nc2nc(N)nc3nc[nH]c23)nc2cccc(C)c2c1=O (stereo not drawn) [CAL-130]
Percent of Control Binding (ABL1): 100%
Percent of Control Binding (AURKC): 100%
Percent of Control Binding (BMPR1B): 100%
Percent of Control Binding (BRSK1): 100%
Percent of Control Binding (CAMKK2): 18%
Percent of Control Binding (CDK3): 100%
Percent of Control Binding (CDKL5): 100%
Percent of Control Binding (DRAK1): 100%
Percent of Control Binding (FGFR1): 100%
Percent of Control Binding (FLT1): 100%
Percent of Control Binding (FLT3): 100%
Percent of Control Binding (FLT3(D835H)): 100%
Percent of Control Binding (FLT3(D835Y)): 100%
Percent of Control Binding (HPK1): 100%
Percent of Control Binding (IKK-α): 100%
Percent of Control Binding (IKK-[…]): 100%
Percent of Control Binding (INSRR): 100%
Percent of Control Binding (IRAK3): 100%
Percent of Control Binding (JAK2(JH1domain)): 100%
Percent of Control Binding (JNK3): 100%
Percent of Control Binding (LATS2): 100%
Percent of Control Binding (MAP4K5): 100%
Percent of Control Binding (MARK2): 100%
Percent of Control Binding (MEK4): 100%
Percent of Control Binding (MLCK): 100%
Percent of Control Binding (NEK5): 100%
Percent of Control Binding (PKMYT1): 100%
Percent of Control Binding (SIK2): 100%
Percent of Control Binding (SgK110): 100%
Percent of Control Binding (TNIK): 100%
Percent of Control Binding (TNK2): 100%
Percent of Control Binding (TSSK1B): 100%
Percent of Control Binding (TXK): 100%
Percent of Control Binding (ULK2): 100%
Percent of Control Binding (YANK2): 100%
Percent of Control Binding (ZAK): 100%
